This passage reports target mRNA inhibition results from the OligoGym collection.

The target of this data set is SOD1. Particulars: ASO.

Several values for one entry are separate records, joined by “and”; a condition that tells them apart may be missing. Equal entries are not always repeated. After the bases stand the sugars from the 5' end (letter, count) and the backbone: PS all phosphorothioate, else s phosphorothioate and o phosphodiester by linkage. Methylation of C is not given here. e = 2'-O-(2-methoxyethyl) (MOE); k = constrained ethyl (cEt); d = 2'-deoxy (DNA)

Where the note is “HepG2, 3 µM”, “ATGCCTCTCTTCATCCT (sugars e3 k2 d7 k2 e3, PS)” gave a target mRNA inhibition of 0%.

Where the note is “HepG2, 5 µM”, “AGTTTCTCACTACAGGT (sugars e2 k2 d9 k2 e2, PS)” registered a target mRNA inhibition of 50%.

On to “TTTTATTCACAGGCTTG (sugars e3 k2 d7 k2 e3, PS)”, for which, where the note is “HepG2, 3 µM”, the target mRNA inhibition was found to be 28%.

Take “CCGCGACTACTTTATAG (sugars e3 k2 d7 k2 e3, PS)”: the target mRNA inhibition (HepG2, 3 µM) stood at 5%.

“AATGTTTATCAGGATACATT (sugars e5 d10 e5, PS)” returned a target mRNA inhibition (HepG2, 5 µM) of 54%.

For the sequence “CTTTGGCCCACCGTGTT (sugars e3 k2 d7 k2 e3, PS)”, the target mRNA inhibition (HepG2, 3 µM) worked out at 41%.

Where the note is “HepG2, 4 µM”, “GTCCTTTAATGCTTCCCCAC (sugars e5 d10 e5, PS)” had a target mRNA inhibition of 9%.

Take “TACACCACAAGCCAAAC (sugars e2 k2 d9 k2 e2, PS)”: under “HepG2, 4 µM”, the target mRNA inhibition turned out to be 63%.

Where the note is “HepG2, 5 µM”, “CTCACTACAGGTACTTT (sugars e2 k2 d8 k2 e3, PS)” had a target mRNA inhibition of 40%.

In the case of “TCAGCACGCACACGGCCTTC (sugars e5 d10 e5, PS)”, the target mRNA inhibition was 6% (HepG2, 0.1875 µM); 12% (HepG2, 0.75 µM); 51% (HepG2, 3 µM); 52% (HepG2, 4 µM); 88% (HepG2, 12 µM).

In turn, “ACAGGGTTTTTATTCAC (sugars e2 k2 d9 k2 e2, PS)” gave a target mRNA inhibition (HepG2, 5 µM) of 47%.

Regarding “GGTTTTTATTCACAGGC (sugars e2 k2 d9 k2 e2, PS)”, the target mRNA inhibition (HepG2, 4 µM) was 45%; the target mRNA inhibition (HepG2, 5 µM) was 57%; the target mRNA inhibition (HepG2, 12 µM) was 51%.

In turn, “ACTTTCCTTCTGCTCGA (sugars e3 k2 d7 k2 e3, PS)” showed a target mRNA inhibition (HepG2, 3 µM) of 0%.

In turn, “AATCCATGCAGGCCTTC (sugars e3 k2 d7 k2 e3, PS)” displayed a target mRNA inhibition (HepG2, 3 µM) of 13%.

As for “CTCCGCGACTACTTTATAGG (sugars e5 d10 e5, PS)”, the target mRNA inhibition (HepG2, 4 µM) is 27%.

The sequence “ACATCCAAGGGAATGTT (sugars e3 k2 d7 k2 e3, PS)” had a target mRNA inhibition (HepG2, 3 µM) of 30%.

The sequence “CATGGAATCCATGCAGG (sugars e3 k2 d7 k2 e3, PS)” returned a target mRNA inhibition (HepG2, 3 µM) of 14%.

For “GGATACATTTCTACAGCT (sugars e5 d8 e5, linkages s1 o3 s9 o2 s2)”, the target mRNA inhibition is, setting by setting: (A431, 0.12 µM) 0%; (A431, 0.6 µM) 25%; (A431, 3 µM) 29%; (A431, 15 µM) 50%; (HepG2, 0.222 µM) 38%; (HepG2, 0.667 µM) 62%. The target mRNA inhibition by setting is: (HepG2, 2 µM) 82%; (HepG2, 6 µM) 94%.

As for “GCAGGATAACAGATGAG (sugars e3 k2 d7 k2 e3, PS)”, the target mRNA inhibition by setting is: (HepG2, 0.1875 µM) 39%; (HepG2, 0.75 µM) 60%; (HepG2, 3 µM) 58% and 80%; (HepG2, 12 µM) 90%.

Regarding “ACACTTTTAAGATTACAGTG (sugars e5 d10 e5, PS)”, the target mRNA inhibition (HepG2, 5 µM) stood at 15%.

Take “CACCGTGTTTTCTGGATAGA (sugars e5 d10 e5, PS)”: for the setting “HepG2, 5 µM”, the target mRNA inhibition is 24% and 11%.

As to “TTTGGATTCTTTTAATAGCC (sugars e5 d10 e5, PS)”, the target mRNA inhibition (HepG2, 5 µM) was determined as 14%.

Under “HepG2, 4 µM”, “AGCTAGCAGGATAACAG (sugars e2 k2 d9 k2 e2, PS)” gave a target mRNA inhibition of 54%.

Sequence “ACACCACAAGCCAAACG (sugars e2 k2 d9 k2 e2, PS)” showed a target mRNA inhibition (HepG2, 4 µM) of 45%.

For the sequence “AGTGTTTAATGTTTATCA (sugars e5 d8 e5, linkages s1 o3 s9 o2 s2)”, the target mRNA inhibition runs as follows: (A431, 0.12 µM) 2%; (A431, 0.6 µM) 35%; (A431, 3 µM) 52%; (A431, 15 µM) 67%; (HepG2, 0.222 µM) 33%; (HepG2, 0.667 µM) 58%. Also, the target mRNA inhibition amounted to 74% (HepG2, 2 µM) and 86% (HepG2, 6 µM).

The sequence “TAAAGTGAGGACCTGCA (sugars e3 k2 d7 k2 e3, PS)” had a target mRNA inhibition (HepG2, 3 µM) of 19%.

Under “HepG2, 5 µM”, “AATCAGTTTCTCACTAC (sugars e2 k2 d8 k2 e3, PS)” returned a target mRNA inhibition of 34%.

Consider “TCGGCCACACCATCTTTGTC (sugars e5 d10 e5, PS)”, for which, for the setting “HepG2, 5 µM”, the target mRNA inhibition was 32% and 28%.

As to “TTATCAGGATACATTTC (sugars e2 k2 d9 k2 e2, PS)”, the target mRNA inhibition (HepG2, 4 µM) was determined as 67%.

Where the note is “HepG2, 5 µM”, “TGAAAAAGTCACACAATTAC (sugars e5 d10 e5, PS)” displayed a target mRNA inhibition of 0%.

Consider “TCTGCTCGAAATTGATGATG (sugars e5 d10 e5, PS)”, for which the target mRNA inhibition (HepG2, 4 µM) came out at 14%.

“TGAGAGTGAGATCACAGAAT (sugars e5 d10 e5, PS)” returned a target mRNA inhibition (HepG2, 5 µM) of 18%.

On to “ATTTCTACAGCTAGCAGGAT (sugars e5 d10 e5, PS)”, for which the target mRNA inhibition amounted to 69% (HepG2, 4 µM) and 82% (HepG2, 12 µM).

The sequence “CAAATCTTCCAAGTGAT (sugars e3 k2 d7 k2 e3, PS)” gave a target mRNA inhibition (HepG2, 3 µM) of 18%.

Regarding “CAGTGTTTAATGTTTA (sugars kekeddddddddekek, linkages s1 o3 s8 o1 s2)”, the target mRNA inhibition amounted to 19% (A431, 0.12 µM); 18% (A431, 0.6 µM); 36% (A431, 3 µM); 55% (A431, 15 µM); 50% (HepG2, 0.222 µM); 67% (HepG2, 0.667 µM). Moreover, the target mRNA inhibition (HepG2, 2 µM) came to 81% and the target mRNA inhibition (HepG2, 6 µM) amounted to 86%.

As to “TAATGTTTATCAGGATA (sugars e2 k2 d9 k2 e2, PS)”, the target mRNA inhibition (HepG2, 0.1875 µM) amounted to 28%; the target mRNA inhibition (HepG2, 0.75 µM) is 66%; the target mRNA inhibition (HepG2, 3 µM) was found to be 91%; the target mRNA inhibition (HepG2, 4 µM) was 85% and 82%; the target mRNA inhibition (HepG2, 12 µM) is 93% and 98%.

As for “CTCACTACAGGTACTTTAAA (sugars e5 d10 e5, PS)”, where the note is “HepG2, 5 µM”, the target mRNA inhibition was 25%.

As to “AAGTGCCATACAGGGTT (sugars e2 k2 d8 k2 e3, PS)”, the target mRNA inhibition (HepG2, 5 µM) was found to be 15%.

On to “AATGTTTATCAGGATA (sugars ekddddddddekekee, linkages s1 o1 s8 o3 s2)”, for which the target mRNA inhibition runs as follows: (A431, 0.12 µM) 10%; (A431, 0.6 µM) 30%; (A431, 3 µM) 51%; (A431, 15 µM) 72%.

Consider “TGTTTAATGTTTATCA (sugars ekddddddddekekee, linkages s1 o1 s8 o3 s2)”, for which the target mRNA inhibition runs as follows: (A431, 0.12 µM) 0%; (A431, 0.6 µM) 13%; (A431, 3 µM) 31%; (A431, 15 µM) 49%.

Regarding “TCCCCACACCTTCACT (sugars ekddddddddekekee, linkages s1 o1 s8 o3 s2)”, the target mRNA inhibition was determined as 0% (A431, 0.12 µM); 0% (A431, 0.6 µM); 7% (A431, 3 µM); 21% (A431, 15 µM); 16% (HepG2, 0.222 µM); 34% (HepG2, 0.667 µM). For the same sequence, the target mRNA inhibition by setting is: (HepG2, 2 µM) 58%; (HepG2, 6 µM) 80%.

The sequence “GGTCCATTACTTTCCTT (sugars e3 k2 d7 k2 e3, PS)” registered a target mRNA inhibition (HepG2, 3 µM) of 18%.

On to “TTCTCACTACAGGTACTTTA (sugars e5 d10 e5, PS)”, for which the target mRNA inhibition (HepG2, 5 µM) was found to be 28%.

Consider “TCAGACTACATCCAAGG (sugars e3 k2 d7 k2 e3, PS)”, for which the target mRNA inhibition runs as follows: (HepG2, 0.1875 µM) 19%; (HepG2, 0.75 µM) 51%; (HepG2, 3 µM) 57% and 74%; (HepG2, 12 µM) 85%.

In turn, “CCTCATAATAAGTGCCA (sugars e2 k2 d8 k2 e3, PS)” showed a target mRNA inhibition (HepG2, 5 µM) of 29%.

Sequence “ACTTTATAGGCCAGACCTCC (sugars e5 d10 e5, PS)” displayed a target mRNA inhibition (HepG2, 4 µM) of 64%.

In turn, “ATCAGTTTCTCACTACA (sugars e2 k2 d9 k2 e2, PS)” came in with a target mRNA inhibition (HepG2, 5 µM) of 44%.

For the sequence “CGATCCCAATTACACCA (sugars e3 k2 d7 k2 e3, PS)”, the target mRNA inhibition (HepG2, 3 µM) was 12%.

For the setting “HepG2, 3 µM”, “GTTTTATAAAACTATAC (sugars e3 k2 d7 k2 e3, PS)” registered a target mRNA inhibition of 22%.

On to “GGATACATTTCTACAGC (sugars e4 k1 d8 k1 e3, linkages s1 o3 s9 o1 s2)”, for which the target mRNA inhibition (A431, 0.062 µM) is 8%; the target mRNA inhibition (A431, 0.185 µM) stood at 7%; the target mRNA inhibition (A431, 0.556 µM) came to 30%; the target mRNA inhibition (A431, 1.667 µM) is 33%; the target mRNA inhibition (A431, 5 µM) was 66%; the target mRNA inhibition (A431, 15 µM) was 59%. In addition, the target mRNA inhibition is 9% (SH-SY5Y, 0.062 µM); 0% (SH-SY5Y, 0.185 µM); 12% (SH-SY5Y, 0.556 µM); 33% (SH-SY5Y, 1.667 µM); 65% (SH-SY5Y, 5 µM); 76% (SH-SY5Y, 15 µM).

In turn, “ATACAGGTCATTGAAAC (sugars e3 k2 d7 k2 e3, PS)” had a target mRNA inhibition (HepG2, 3 µM) of 14%.

For “ATTGAAACAGACATTTTAAC (sugars e5 d10 e5, PS)”, the target mRNA inhibition (HepG2, 5 µM) was 0%.

For the sequence “AATGTTTATCAGGATAC (sugars e2 k2 d9 k2 e2, PS)”, the target mRNA inhibition came out at 43% (HepG2, 0.1875 µM); 75% (HepG2, 0.75 µM); 91% (HepG2, 3 µM); 90% (HepG2, 4 µM); 97% (HepG2, 12 µM).

Under “HepG2, 4 µM”, “GACTACGACGCAAACCAGCA (sugars e5 d10 e5, PS)” came in with a target mRNA inhibition of 40%.

Where the note is “HepG2, 5 µM”, “ATCTGTGATTTAAGTCT (sugars e2 k2 d8 k2 e3, PS)” showed a target mRNA inhibition of 35%.

The sequence “GACCTGCACTGGTACAG (sugars e3 k2 d7 k2 e3, PS)” came in with a target mRNA inhibition (HepG2, 3 µM) of 7%.

The sequence “ACTTTCTTCATTTCCAC (sugars e3 k2 d7 k2 e3, PS)” showed a target mRNA inhibition (HepG2, 3 µM) of 15%.
